Where two headings read alike, the source gives them in different places.
Biological target: T1, STAT6 (Homo sapiens, UniProt P42226)
T1 construct: endogenous in cells; host or cells: MOLM-16, KU-812, SKNO1, MB231, L1236
T1 sequence (P42226 1-847): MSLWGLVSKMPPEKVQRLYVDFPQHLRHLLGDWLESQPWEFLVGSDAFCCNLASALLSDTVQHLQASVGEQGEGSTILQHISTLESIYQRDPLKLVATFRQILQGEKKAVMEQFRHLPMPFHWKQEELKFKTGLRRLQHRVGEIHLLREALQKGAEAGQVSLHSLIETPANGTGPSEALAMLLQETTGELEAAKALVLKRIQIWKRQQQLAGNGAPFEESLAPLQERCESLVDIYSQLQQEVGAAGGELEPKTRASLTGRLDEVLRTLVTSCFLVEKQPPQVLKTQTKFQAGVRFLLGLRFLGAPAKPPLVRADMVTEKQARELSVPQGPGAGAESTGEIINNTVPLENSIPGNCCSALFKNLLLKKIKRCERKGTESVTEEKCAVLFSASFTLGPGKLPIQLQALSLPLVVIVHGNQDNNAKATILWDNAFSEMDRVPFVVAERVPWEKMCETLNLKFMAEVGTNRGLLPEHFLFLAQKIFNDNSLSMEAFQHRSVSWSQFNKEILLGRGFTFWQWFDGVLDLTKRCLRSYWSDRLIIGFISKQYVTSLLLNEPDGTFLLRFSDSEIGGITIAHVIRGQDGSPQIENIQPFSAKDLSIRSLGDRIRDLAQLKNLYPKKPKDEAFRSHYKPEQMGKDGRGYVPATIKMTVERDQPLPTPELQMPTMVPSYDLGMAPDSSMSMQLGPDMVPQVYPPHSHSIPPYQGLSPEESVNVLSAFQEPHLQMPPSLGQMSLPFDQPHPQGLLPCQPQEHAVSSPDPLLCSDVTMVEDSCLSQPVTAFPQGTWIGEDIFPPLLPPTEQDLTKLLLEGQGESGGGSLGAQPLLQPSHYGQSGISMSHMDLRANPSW
Assay: Immunoblotting (Western blot) analysis of STAT6 degradation efficiency of degraders in treated cells
Format: cell-based
Procedure, shortened: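 Treatment of cells with degraders at stated concentrations and exposure times comes first. Lysates are then equalised for total protein by BCA, and the proteins are separated, transferred and immunostained for STAT6 or STAT5 alongside GAPDH. Signal is quantified from infrared fluorescence.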

[1] = MOLM-16 cells, class symbols, read-out: DC50 S6 MOLM-16
[2] = L1236 cells, read-out: DC50 S6 L1236

| Structure (SMILES) | DC50 [1] [µM] | DC50 [2] [µM] |
| --- | --- | --- |
| CC(C)(C)[C@H](NC(=O)c1cc2cc(C(F)(F)P(=O)(O)O)ccc2s1)C(=O)N1C[C@@H](OCCCCCC(=O)N2Cc3cc4c(cc3C2)C(=O)N(C2CCC(=O)NC2=O)C4)C[C@H]1C(=O)N1CCO[C@H](c2ccccc2)C1 (stereo partly drawn) [Compound 590, ((2-(((2S)-1-((2S,4S)-4-((6-(6-(2,6-dioxopiperidin-3-yl)-5-oxo-3,5,6,7-tetrahydropyrrolo[3,4-f]isoindol-2(1H)-yl)-6-oxohexyl)oxy)-2-((R)-2-phenylmorpholine-4-carbonyl)pyrrolidin-1-yl)-3,3-dimethyl-1-oxobutan-2-yl)carbamoyl)benzo[b]thiophen-5-yl)difluoromethyl)phosphonic acid] | 1 to 10 |  |
| Cc1ncsc1-c1ccc([C@H](C)NC(=O)[C@@H]2C[C@@H](O)CN2C(=O)[C@@H](NC(=O)CCCCCCNC(=O)CC(=O)N2CCN(C(=O)[C@@H](NC(=O)c3cc4cc(C(F)(F)P(=O)(O)O)ccc4s3)C(C)(C)C)[C@H](C(=O)N3CCC[C@H](c4ccccc4)C3)C2)C(C)(C)C)cc1 [Compound 457, (difluoro(2-(((S)-1-((S)-4-(3-((7-(((S)-1-((2S,4R)-4-hydroxy-2-(((S)-1-(4-(4-methylthiazol-5-yl)phenyl)ethyl)carbamoyl)pyrrolidin-1-yl)-3,3-dimethyl-1-oxobutan-2-yl)amino)-7-oxoheptyl)amino)-3-oxopropanoyl)-2-((R)-3-phenylpiperidine-1-carbonyl)piperazin-1-yl)-3,3-dimethyl-1-oxobutan-2-yl)carbamoyl)benzo[b]thiophen-5-yl)methyl)phosphonic acid] | > 10 | > 10 |
| CC(C)(C)[C@H](NC(=O)c1cc2cc(C(F)(F)P(=O)(O)O)ccc2s1)C(=O)N1C[C@@H](OCC(=O)NCCCCC#Cc2cccc3c2C(=O)N(C2CCC(=O)NC2=O)C3=O)C[C@H]1C(=O)N1CCO[C@H](c2ccccc2)C1 (stereo partly drawn) [Compound 485, ((2-(((2S)-1-((2S,4S)-4-(2-((6-(2-(2,6-dioxopiperidin-3-yl)-1,3-dioxoisoindolin-4-yl)hex-5-yn-1-yl)amino)-2-oxoethoxy)-2-((R)-2-phenylmorpholine-4-carbonyl)pyrrolidin-1-yl)-3,3-dimethyl-1-oxobutan-2-yl)carbamoyl)benzo[b]thiophen-5-yl)difluoromethyl)phosphonic acid] | > 10 |  |
| CC(C)(C)[C@H](NC(=O)c1cc2cc(C(F)(F)P(=O)(O)O)ccc2s1)C(=O)N1CCN(C(=O)CC(=O)NCCC#Cc2cccc3c2C(=O)N(C2CCC(=O)NC2=O)C3=O)C[C@H]1C(=O)N1CCO[C@H](c2ccccc2)C1 (stereo partly drawn) [Compound 509, ((2-(((2S)-1-((2S)-4-(3-((4-(2-(2,6-dioxopiperidin-3-yl)-1,3-dioxoisoindolin-4-yl)but-3-yn-1-yl)amino)-3-oxopropanoyl)-2-((R)-2-phenylmorpholine-4-carbonyl)piperazin-1-yl)-3,3-dimethyl-1-oxobutan-2-yl)carbamoyl)benzo[b]thiophen-5-yl)difluoromethyl)phosphonic acid] | > 10 |  |
| Cc1ncsc1-c1ccc([C@H](C)NC(=O)[C@@H]2C[C@@H](O)CN2C(=O)[C@@H](NC(=O)CCCCCNC(=O)CO[C@H]2C[C@@H](C(=O)N3CCO[C@H](c4ccccc4)C3)N(C(=O)[C@@H](NC(=O)c3cc4cc(C(F)(F)P(=O)(O)O)ccc4s3)C(C)(C)C)C2)C(C)(C)C)cc1 [Compound 429, (difluoro(2-(((S)-1-((2S,4S)-4-(2-((6-(((S)-1-((2S,4R)-4-hydroxy-2-(((S)-1-(4-(4-methylthiazol-5-yl)phenyl)ethyl)carbamoyl)pyrrolidin-1-yl)-3,3-dimethyl-1-oxobutan-2-yl)amino)-6-oxohexyl)amino)-2-oxoethoxy)-2-((R)-2-phenylmorpholine-4-carbonyl)pyrrolidin-1-yl)-3,3-dimethyl-1-oxobutan-2-yl)carbamoyl)benzo[b]thiophen-5-yl)methyl)phosphonic acid] | > 10 | > 10 |
| Cc1ncsc1-c1ccc([C@H](CC(=O)NCCCCCCCCCC(=O)N[C@H]2C[C@@H](C(=O)N3CCO[C@H](c4ccccc4)C3)N(C(=O)[C@@H](NC(=O)c3cc4cc(C(F)(F)P(=O)(O)O)ccc4s3)C(C)(C)C)C2)NC(=O)[C@@H]2C[C@@H](O)CN2C(=O)[C@@H](NC(=O)C2(F)CC2)C(C)(C)C)cc1 [Compound 572, (difluoro(2-(((S)-1-((2S,4S)-4-(10-((S)-3-((2S,4R)-1-((S)-2-(1-fluorocyclopropane-1-carboxamido)-3,3-dimethylbutanoyl)-4-hydroxypyrrolidine-2-carboxamido)-3-(4-(4-methylthiazol-5-yl)phenyl)propanamido)decanamido)-2-((R)-2-phenylmorpholine-4-carbonyl)pyrrolidin-1-yl)-3,3-dimethyl-1-oxobutan-2-yl)carbamoyl)benzo[b]thiophen-5-yl)methyl)phosphonic acid] | > 10 |  |
| CC(C)(C)[C@H](NC(=O)c1cc2cc(C(F)(F)P(=O)(O)O)ccc2s1)C(=O)N1CCN(C(=O)CC(=O)NCCC#Cc2ccc3c(c2)C(=O)N(C2CCC(=O)NC2=O)C3=O)C[C@H]1C(=O)N1CCC[C@H](c2ccccc2)C1 (stereo partly drawn) [Compound 524, ((2-(((2S)-1-((2S)-4-(3-((4-(2-(2,6-dioxopiperidin-3-yl)-1,3-dioxoisoindolin-5-yl)but-3-yn-1-yl)amino)-3-oxopropanoyl)-2-((R)-3-phenylpiperidine-1-carbonyl)piperazin-1-yl)-3,3-dimethyl-1-oxobutan-2-yl)carbamoyl)benzo[b]thiophen-5-yl)difluoromethyl)phosphonic acid] | > 10 |  |
| Cc1ncsc1-c1ccc([C@H](CC(=O)NCCCCCCC(=O)N[C@H]2C[C@@H](C(=O)N3CCO[C@H](c4ccccc4)C3)N(C(=O)[C@@H](NC(=O)c3cc4cc(C(F)(F)P(=O)(O)O)ccc4s3)C(C)(C)C)C2)NC(=O)[C@@H]2C[C@@H](O)CN2C(=O)[C@@H](NC(=O)C2(F)CC2)C(C)(C)C)cc1 [Compound 569, (difluoro(2-(((S)-1-((2S,4S)-4-(7-((S)-3-((2S,4R)-1-((S)-2-(1-fluorocyclopropane-1-carboxamido)-3,3-dimethylbutanoyl)-4-hydroxypyrrolidine-2-carboxamido)-3-(4-(4-methylthiazol-5-yl)phenyl)propanamido)heptanamido)-2-((R)-2-phenylmorpholine-4-carbonyl)pyrrolidin-1-yl)-3,3-dimethyl-1-oxobutan-2-yl)carbamoyl)benzo[b]thiophen-5-yl)methyl)phosphonic acid] | > 10 |  |
| Cc1ncsc1-c1ccc([C@H](C)NC(=O)[C@@H]2C[C@@H](O)CN2C(=O)[C@@H](NC(=O)CCNC(=O)COc2ccc3c(c2)CN(C(=O)[C@@H](NC(=O)c2cc4cc(C(F)(F)P(=O)(O)O)ccc4s2)C(C)(C)C)[C@H](C(=O)N2CCO[C@H](c4ccccc4)C2)C3)C(C)(C)C)cc1 [Compound 462, (difluoro(2-(((S)-1-((S)-7-(2-((3-(((S)-1-((2S,4R)-4-hydroxy-2-(((S)-1-(4-(4-methylthiazol-5-yl)phenyl)ethyl)carbamoyl)pyrrolidin-1-yl)-3,3-dimethyl-1-oxobutan-2-yl)amino)-3-oxopropyl)amino)-2-oxoethoxy)-3-((R)-2-phenylmorpholine-4-carbonyl)-3,4-dihydroisoquinolin-2(1H)-yl)-3,3-dimethyl-1-oxobutan-2-yl)carbamoyl)benzo[b]thiophen-5-yl)methyl)phosphonic acid] | > 10 | > 10 |
| Cc1ncsc1-c1ccc([C@H](C)NC(=O)[C@@H]2C[C@@H](O)CN2C(=O)[C@@H](NC(=O)CCCCCCCCCNC(=O)CO[C@H]2C[C@@H](C(=O)N3CCO[C@H](c4ccccc4)C3)N(C(=O)[C@@H](NC(=O)c3cc4cc(C(F)(F)P(=O)(O)O)ccc4s3)C(C)(C)C)C2)C(C)(C)C)cc1 [Compound 433, (difluoro(2-(((S)-1-((2S,4S)-4-(2-((10-(((S)-1-((2S,4R)-4-hydroxy-2-(((S)-1-(4-(4-methylthiazol-5-yl)phenyl)ethyl)carbamoyl)pyrrolidin-1-yl)-3,3-dimethyl-1-oxobutan-2-yl)amino)-10-oxodecyl)amino)-2-oxoethoxy)-2-((R)-2-phenylmorpholine-4-carbonyl)pyrrolidin-1-yl)-3,3-dimethyl-1-oxobutan-2-yl)carbamoyl)benzo[b]thiophen-5-yl)methyl)phosphonic acid] | > 10 | > 10 |
